According to ChEMBL document CHEMBL5241087, “A review on the structures and biological activities of anti-Helicobacter pylori agents” (Eur J Med Chem, 2021):
In brackets after ≈: the same amount, converted by molar mass.

Legend:
[1] = Inhibition of Helicobacter pylori IMPDH
Helicobacter pylori [2] = test: Antimicrobial activity against Helicobacter pylori EP1757 assessed as inhibition of bacterial growth; format: functional
Helicobacter pylori [3] = test: Antimicrobial activity against Helicobacter pylori EP1836 assessed as inhibition of bacterial growth; format: functional
Helicobacter pylori [4] = test: Antibacterial activity against Helicobacter pylori SS1 assessed as reduction in bacterial growth by broth microdilution method; format: functional
Helicobacter pylori [5] = test: Antibacterial activity against Helicobacter pylori P12 assessed as reduction in bacterial growth by broth microdilution method; format: functional
Helicobacter pylori [6] = test: Antibacterial activity against metronidazole-resistant Helicobacter pylori incubated for 72 hrs; format: functional
[7] = target: T1, Aminodeoxyfutalosine nucleosidase (Helicobacter pylori (strain J99 / ATCC 700824) (Campylobacter pylori J99), UniProt Q9ZMY2); test: Inhibition of Helicobacter pylori MTAN assessed as dissociation constant
T1 sequence (Q9ZMY2 whole entry): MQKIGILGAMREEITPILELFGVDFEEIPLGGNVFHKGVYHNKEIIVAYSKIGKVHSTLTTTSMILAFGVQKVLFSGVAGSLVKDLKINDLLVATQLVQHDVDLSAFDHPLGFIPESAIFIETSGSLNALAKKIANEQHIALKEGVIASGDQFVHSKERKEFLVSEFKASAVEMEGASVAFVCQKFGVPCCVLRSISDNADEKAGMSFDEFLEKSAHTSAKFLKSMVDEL

Helicobacter pylori [8] = test: Antibacterial activity against Helicobacter pylori assessed as diameter of zone inhibition at 25 to 100 ug per disk incubated for […] by disk diffusion assay; format: functional; settings: dose 25-100 µg
Helicobacter pylori [9] = test: Antibacterial activity against Helicobacter pylori assessed as diameter of zone inhibition at 12.5 to 100 ug per disk incubated for […] by disk diffusion assay; format: functional; settings: dose 12.5-100 µg
Helicobacter pylori [10] = test: Antimicrobial activity against Helicobacter pylori assessed as inhibition of bacterial growth incubated for 72 hrs by broth dilution method; format: functional
Helicobacter pylori [11] = test: Antibacterial activity against Helicobacter pylori ATCC 43504 assessed as bacterial growth inhibition; format: functional
Helicobacter pylori [12] = test: Antibacterial activity against Helicobacter pylori; format: functional
Helicobacter pylori [13] = test: Antimicrobial activity against Helicobacter pylori KA05 assessed as inhibition of bacterial growth by broth dilution method; format: functional
Helicobacter pylori [14] = test: Antibacterial activity against Helicobacter pylori assessed as bacterial growth inhibition; format: functional
[15] = Antioxidant activity assessed as radical scavenging activity; format: functional
Helicobacter pylori [16] = test: Antibacterial activity against clinical isolate Helicobacter pylori assessed as bacterial growth inhibition incubated for 72 hrs by agar dilution method; format: functional
Helicobacter pylori [17] = test: Antibacterial activity against metronidazole-resistant Helicobacter pylori assessed as diameter of zone inhibition at 12.5 to 100 ug per disk by paper disk diffusion assay; format: functional; settings: dose 12.5-100 µg
[18] = Inhibition of Helicobacter pylori IMPDH incubated for 10 mins by multilabel reader analysis
[19] = Inhibition of Helicobacter pylori IMPDH incubated for 10 mins in presence of […] by multilabel reader analysis
[20] = Inhibition of urease (unknown origin)
Helicobacter pylori [21] = test: Antibacterial activity against metronidazole-resistant Helicobacter pylori ATCC 43504; format: functional, organism-based
[22] = Inhibition of Helicobacter pylori GatCAB assessed as inhibition constant
Helicobacter pylori [23] = test: Antibacterial activity against metronidazole-resistant Helicobacter pylori assessed as inhibition zone at 50 ug per disk by paper disk diffusion assay; format: functional; settings: read-out: IZ
Glutamate racemase = target: T2, Glutamate racemase (Helicobacter pylori J99, UniProt Q9ZLT0); test: Inhibition of Helicobacter pylori Glutamate racemase
T2 sequence (Q9ZLT0 whole entry): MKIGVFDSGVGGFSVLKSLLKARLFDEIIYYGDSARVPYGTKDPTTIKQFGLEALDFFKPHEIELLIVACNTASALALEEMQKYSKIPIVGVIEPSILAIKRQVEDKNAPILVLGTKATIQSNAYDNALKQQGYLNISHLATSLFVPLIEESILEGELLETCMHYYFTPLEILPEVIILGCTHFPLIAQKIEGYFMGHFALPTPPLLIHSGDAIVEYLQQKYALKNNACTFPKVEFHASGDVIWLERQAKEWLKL

Helicobacter pylori [24] = test: Antibacterial activity against wild type Helicobacter pylori; format: functional
[25] = target: Inosine-5'-monophosphate dehydrogenase 2 (Homo sapiens) (UniProt P12268); test: Inhibition of human IMPDH at 10 uM incubated for 10 mins by multilabel reader analysis relative to control
Helicobacter pylori [26] = test: Inhibition of Helicobacter pylori IMPDH at 10 uM incubated for 10 mins in presence of […] by multilabel reader analysis relative to control
Helicobacter pylori [27] = test: Antibacterial activity against metronidazole-resistant Helicobacter pylori assessed as diameter of zone inhibition at 16 to 32 ug per disk incubated for 2 to 10 days by disk diffusion assay; format: functional; settings: dose 16-32 µg; time 2-10 day
[28] = Plasma protein binding in human; format: ADME, cell-free; settings: read-out: PPB (converted)

Chain of Inosine-5'-monophosphate dehydrogenase 2 (Homo sapiens) (P12268 2-514 limits assumed): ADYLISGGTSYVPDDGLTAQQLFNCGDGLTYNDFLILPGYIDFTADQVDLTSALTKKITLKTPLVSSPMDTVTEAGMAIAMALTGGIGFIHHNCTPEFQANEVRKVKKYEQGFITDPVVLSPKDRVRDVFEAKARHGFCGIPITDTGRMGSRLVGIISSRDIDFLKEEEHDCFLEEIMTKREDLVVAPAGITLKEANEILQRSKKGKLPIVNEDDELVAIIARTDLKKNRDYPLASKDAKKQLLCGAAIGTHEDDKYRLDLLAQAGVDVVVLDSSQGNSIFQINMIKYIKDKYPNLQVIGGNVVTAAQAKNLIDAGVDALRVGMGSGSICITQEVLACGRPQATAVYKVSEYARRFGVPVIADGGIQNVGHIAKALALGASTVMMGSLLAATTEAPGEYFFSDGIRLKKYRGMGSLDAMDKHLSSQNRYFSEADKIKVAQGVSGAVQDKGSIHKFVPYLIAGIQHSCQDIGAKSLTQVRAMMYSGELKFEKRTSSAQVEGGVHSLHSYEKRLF

Structure (SMILES): O=C(Cn1cc(/N=N/c2cccnc2)c2ccccc21)Nc1ccc2ccccc2c1
- IC50 [1]: 0.8 µM

Structure (SMILES): NC(=O)Cc1csc(SC2=C(C(=O)O)N3C(=O)[C@@H](NC(=O)Cc4ccccc4)[C@H]3SC2)n1
- MIC (Helicobacter pylori [2]): 0.00078 µg/mL (≈ 0.00159 µM)
- MIC (Helicobacter pylori [3]): 0.00313 µg/mL (≈ 0.00638 µM)

Structure (SMILES): CCOc1ccc2nc(S(N)(=O)=O)sc2c1 [ETHOXZOLAMIDE]
- MIC (Helicobacter pylori [4]): 200 µM (≈ 51.7 µg/mL)
- MIC (Helicobacter pylori [5]): 200 µM (≈ 51.7 µg/mL)

Structure (SMILES): O=c1oc2ccccc2cc1-c1csc(N/N=C/c2ccco2)n1
- MIC (Helicobacter pylori [6]): ≥ 16 µg/mL

Structure (SMILES): CCCCCCSC[C@H]1CN(Cc2c[nH]c3c(N)ncnc23)C[C@@H]1O
- Kd [7]: < 0.05 µM

Structure (SMILES): CCCCSC[C@H]1CN(Cc2c[nH]c3c(N)ncnc23)C[C@@H]1O
- Kd [7]: < 0.05 µM

Structure (SMILES): CCCNC(=O)CSc1nnc(-c2ccc([N+](=O)[O-])o2)s1
- diameter of the inhibition zone (DIZ) (Helicobacter pylori [8]): 10 mm
- diameter of the inhibition zone (DIZ) (Helicobacter pylori [9]): 33 mm

Structure (SMILES): CC1=C(/C=N/N(C)C(N)=S)C(C)(C)CC=C1
- MIC90 (Helicobacter pylori [10]): 4 µM (≈ 0.949 µg/mL)

Structure (SMILES): Cc1ncc([N+](=O)[O-])n1CCOc1cc(O)c2c(=O)c(-c3ccc(O)cc3)coc2c1
- MIC (Helicobacter pylori [11]): 0.39 µg/mL (≈ 0.921 µM)

Structure (SMILES): CCCCOC(=O)/C=C/c1ccc(O)c(O)c1 [BUTYL CAFFEATE]
- MIC (Helicobacter pylori [12]): 250 µg/mL (≈ 1060 µM)

Structure (SMILES): CCCSC[C@H]1CN(Cc2c[nH]c3c(N)ncnc23)C[C@@H]1O
- Kd [7]: < 0.05 µM

Structure (SMILES): COc1cc2ccc(=O)oc2cc1O[C@@H]1O[C@H](CO)[C@@H](O)[C@H](O)[C@H]1O [SCOPOLIN]
- MIC (Helicobacter pylori [13]): 50 µg/mL (≈ 141 µM)

Structure (SMILES): Cc1ncc([N+](=O)[O-])n1CCO [METRONIDAZOLE]
- MIC (Helicobacter pylori [14]): > 254 µg/mL
- ED50 [15]: 5.4 µg/mL (≈ 31.6 µM)
- MIC (Helicobacter pylori [16]): 2 µg/mL (≈ 11.7 µM)
- diameter of the inhibition zone (DIZ) (Helicobacter pylori [8]): 10 mm

Structure (SMILES): CC1=C(/C=N/Nc2nc(-c3cccc([N+](=O)[O-])c3)cs2)C(C)(C)CC=C1
- MIC50 (Helicobacter pylori [10]): 2 µg/mL (≈ 5.43 µM)

Structure (SMILES): C=C(C)C(CC=C(C)C)CC1(CC=C(C)C)C(=O)C(C(CCC)CC(=O)O)=C2O[C@H](C)[C@@H](C)C(=O)C2=C1O (some centres undefined)
- MIC (Helicobacter pylori [12]): 12.5 µg/mL (≈ 23.7 µM)

Structure (SMILES): CC(Sc1nnc(-c2ncc([N+](=O)[O-])n2C)s1)c1ccccc1 (centres undefined)
- diameter of the inhibition zone (DIZ) (Helicobacter pylori [17]): >50 mm

Structure (SMILES): C=C(C)CCC(CC1(CC=C(C)C)C(=O)C(C(CCC)CC(=O)O)=C2O[C@H](C)[C@@H](C)C(=O)C2=C1O)C(=C)C (some centres undefined)
- MIC (Helicobacter pylori [12]): 50 µg/mL (≈ 94.9 µM)

Structure (SMILES): O=C(Cn1cc(/N=N/c2cccnc2)c2ccccc21)Nc1ccc(Cl)cc1
- IC50 [1]: 0.8 µM

Structure (SMILES): COC1=CC(=O)c2c(c(OC)c3cc(C)oc(=O)c3c2O)C1=O
- MIC (Helicobacter pylori [14]): 64 µg/mL (≈ 202 µM)
- ED50 [15]: 1.58 µg/mL (≈ 5 µM)

Structure (SMILES): Clc1ccc(Cn2cc(COc3cccc4ccccc34)nn2)cc1Cl
- IC50 [18]: 1.27 µM

Structure (SMILES): O=C(COc1ccc2ccccc2c1)Nc1ccc2c(c1)COC2=O
- IC50 [19]: 2.21 µM

Structure (SMILES): Cn1cnc([N+](=O)[O-])c1S(=O)(=O)c1ccccc1
- MIC (Helicobacter pylori [16]): 32 µg/mL (≈ 120 µM)

Structure (SMILES): O=C1N/C(=N\c2cccs2)S/C1=C\c1ccc([N+](=O)[O-])o1
- MIC (Helicobacter pylori [14]): < 1.5 µg/mL

Structure (SMILES): Cn1c([N+](=O)[O-])cnc1/C=C1\S/C(=N/c2cccs2)NC1=O
- MIC (Helicobacter pylori [14]): < 1.5 µg/mL

Structure (SMILES): CC1=C(C=O)C(C)(C)CC=C1
- MIC50 (Helicobacter pylori [10]): 2 µg/mL (≈ 13.3 µM)

Structure (SMILES): CN(O)C(=O)CC(O)c1cccc(Cl)c1 (centres undefined)
- IC50 [20]: 1.1 µM

Structure (SMILES): CN(CCO)CC(O)COc1cccc2c(=O)c3ccccc3oc12.Cl (centres undefined)
- IC50 (Helicobacter pylori [21]): 5 µg/mL

Structure (SMILES): CN(C)c1ncnc2c1ncn2[C@@H]1O[C@H](CO)[C@@H](NC(=O)[C@@H](N)CCS(C)(=O)=O)[C@H]1O
- IC50 [18]: 1.27 µM
- Ki [22]: 4 µM

Structure (SMILES): COc1ccc(C[C@H](N)C(=O)N[C@H]2[C@@H](O)[C@H](n3cnc4c(N(C)C)ncnc43)O[C@@H]2CO)cc1 [PUROMYCIN]
- Ki [22]: 4 µM

Structure (SMILES): CCCCCCCOC(=O)/C=C/c1ccc(O)c(O)c1
- MIC (Helicobacter pylori [12]): 250 µg/mL (≈ 898 µM)

Structure (SMILES): O=C(CSc1nnc(-c2ccc([N+](=O)[O-])o2)s1)c1ccccc1Cl
- zone of inhibition at 50 µg/disc (Helicobacter pylori [23]): ≥ 20 mm

Structure (SMILES): COC1=CC(=O)c2c(cc(C)c(C(C)=O)c2O)C1=O
- MIC50 (Helicobacter pylori [12]): 0.3 µM (≈ 0.0781 µg/mL)
- MIC90 (Helicobacter pylori [12]): 0.39 µM (≈ 0.101 µg/mL)

Structure (SMILES): CC1=C(/C=N/NC(N)=S)C(C)(C)CC=C1
- MIC90 (Helicobacter pylori [10]): 4 µM (≈ 0.893 µg/mL)

Structure (SMILES): Cn1cc(C#N)cc1-c1c2c(=O)n(C)c(=O)n(CC3CC3)c2nn1Cc1ccnc2ccc(Cl)cc12
- IC50 (Glutamate racemase): 0.026 µM
- MIC (Helicobacter pylori [24]): 0.5 µg/mL (≈ 1 µM)

Structure (SMILES): NNc1nc(-c2cc3ccccc3oc2=O)cs1
- MIC (Helicobacter pylori [6]): ≥ 16 µg/mL

Structure (SMILES): COc1cc2ccc(=O)oc2cc1O [SCOPOLETIN]
- MIC (Helicobacter pylori [13]): 50 µg/mL (≈ 260 µM)

Structure (SMILES): COc1ccc(-c2oc3ccccc3c(=O)c2OCC(=O)Nc2ccc3c(c2)COC3=O)cc1
- inhibition [25]: 57%
- IC50 [18]: 1.88 µM
- inhibition (Helicobacter pylori [26]): > 70%
- IC50 [19]: 2.21 µM

Structure (SMILES): CO/N=C(/CN1CCN(c2cc3c(cc2F)c(=O)c(C(=O)O)cn3C2CC2)CC1)c1ccccc1Cl
- diameter of the inhibition zone (DIZ) (Helicobacter pylori [27]): 6 mm

Structure (SMILES): CC[C@H]1OC(=O)[C@H](C)[C@@H](O[C@H]2C[C@@](C)(OC)[C@@H](O)[C@H](C)O2)[C@H](C)[C@@H](O[C@@H]2O[C@H](C)C[C@H](N(C)C)[C@H]2O)[C@](C)(OC)C[C@@H](C)C(=O)[C@H](C)[C@@H](O)[C@]1(C)O [CLARITHROMYCIN]
- MIC (Helicobacter pylori [12]): 0.78 µg/mL (≈ 1.04 µM)

Structure (SMILES): O=C(CC(O)c1cc(Cl)ccc1OCc1ccccc1)NO (centres undefined)
- IC50 [20]: 0.15 µM
- fraction unbound [28]: 0.56
